From publication PMC5626944 (Frontiers in Pharmacology, 2017)
Counter-ions that a name gives are not always drawn. Like-named read-outs stand apart in the source and are kept apart here.

How the values were obtained:
α7 nAChRs = system: α7 nAChRs; design: method as in Carroll et al., 2015; settings: ref Carroll et al., 2015; cited from earlier work
α3β4 nAChRs = system: α3β4 nAChRs; design: method as in Carroll et al., 2015; settings: ref Carroll et al., 2015; cited from earlier work
WT and α6L9′S mice = assay: Locomotor assay in a novel environment; assay type: in vivo, mouse; settings: for Ambulatory activity in a novel environment: 0.5 μmol/kg ip (nicotine 0.08 mg/kg, TC299423 0.09 mg/kg)
Description: Mice were habituated to the experimental room for 2 h prior to the experiment. Horizontal locomotor activity was recorded using an infrared photobeam activity cage system (San Diego Instruments; San Diego, CA, United States). After habituating to the experimental room, mice were placed singly in a novel cage. Ambulations were recorded when two contiguous photobeams were broken in succession, preventing activity from being recorded by most sedentary animals. Ambulation events were measured for 45 min with four 15 s intervals per min. Mice were given a total of two intraperitoneal (ip) injections. First, mice were pre-injected with saline or 1 mg/kg mecamylamine before being placed in the activity cages.

α4β2* nAChRs = α4β2* nAChRs (Mus musculus, UniProt O70174+Q9ERK7); assay: biochemical; assay type: biochemical; settings: 10 μM
Description: (§1) Regions of interest were dissected from fresh mouse brains and homogenized in ice-cold isotonic sucrose (0.32 M), buffered with HEPES (5 mM, pH 7.5). The suspension was centrifuged at 12,000 × g for 20 min.
Superfusion proceeded at 0.7 mL/min for 10 min before stimulation with agonist for 20 s. Selected aliquots were perfused with α-CtxMII (50 nM) for 3 min immediately before stimulation. […] Fractions (∼0.1 mL) were collected into 96-well plates at 10 s intervals for 4 min (starting ∼1 min before stimulation).

WT mice [1] = assay: Hot plate assay; assay type: in vivo, mouse; settings: 0.3 mg/kg ip each, 55°C hot plate, p < 0.05
Description: Mice were again habituated to the experimental room for ≥2 h prior to testing. […] This apparatus is a heated metal plate, maintained at 55°C, enclosed by a clear acrylic plastic cylinder (∼10 cm in diameter), within which the mouse is free to move. […] If the mouse urinates during the assay, it is immediately removed from the hot plate. The time that the mouse remains on the hot plate prior to showing signs of discomfort is recorded. Doses were administered using a Latin-square crossover design. A day without testing occurred between each test.

WT mice [2] = assay: Marble burying assay; assay type: in vivo, mouse; settings: 0.3 mg/kg ip
α6β2* nAChRs = α6β2* nAChRs (Mus musculus, UniProt Q9ERK7+Q9R0W9); assay: biochemical; assay type: biochemical; settings: 10 μM
Description: as §1, with “min. The pellet was re-suspended in the appropriate uptake buffer ([Grady et al., 2001]; [Salminen et al., 2004]; [Marks et al., 2006]) and used immediately.” for “min.”
Superfusion was carried out at 22°C using a buffer containing: NaCl, 128 mM; KCl, 2.4 mM; CaCl2, 3.2 mM; MgSO4, 1.2 mM; KH2PO4, 1.2 mM; HEPES, 25 mM; glucose, 10 mM; ascorbic acid, 1 mM; pargyline, 0.01 mM; 0.1% BSA; nomifensine, 1 μM (to prevent the re-uptake of dopamine); atropine, 1 μM (to prevent muscarinic receptor activation); pH 7.5. Superfusion proceeded at 0.7 mL/min for 10 min before stimulation with agonist for 20 s. Selected aliquots were perfused with α-CtxMII (50 nM) for 3 min immediately before stimulation. This concentration of α-CtxMII was sufficient to inhibit α6β2^∗-nAChRs in the mouse striatum ([Salminen et al., 2004], [2007]). Fractions (∼0.1 mL) were collected into 96-well plates at 10 s intervals for 4 min (starting ∼1 min before stimulation). After adding 0.15 mL of Optiphase SuperMix scintillation cocktail, radioactivity was measured using a 1450 MicroBeta TriLux counter (Perkin Elmer Life Sciences).

[3] = In vitro metabolism in microsomes; assay type: in vitro ADME; settings: rat microsomes
CYP1A2 = assay: Turnover by recombinantly expressed human cytochrome P450 isoforms; assay type: in vitro ADME; settings: 100 pmol/mL enzyme, 37 °C
Description: (§2) S2 Table. In vitro metabolism of TC299423, compared w ith varenicline.
(§3) Human Rat microsomes Turnover by human cytochrome P450 isoforms […]
(§4) The assay mixtures (final incubation volume of 125 μL) in 0.255 M phosphate buffer with 0.575% (w/v) KCl (pH 7.4) contained PiB (1.0 μM), […] a recombinantly expressed cytochrome P450 enzyme preparation (1A2, 2C9, 2C19, 2D6, 3A4, and FMO3) at 100 pmol/mL. After a 10 min preincubation at 37 °C, the reaction was initiated by addition of 2.0 mM NADPH and incubated for 60 min. The reactions were terminated by the addition of two volumes of DMSO. Samples were subsequently centrifuged at 4,000 rpm for 10 min. From the resulting supernatant, 10 μ L was analyzed by liquid chromatography/tandem mass spectrometry (LC-MS/MS). Control experiments were performed by substituting the active enzyme preparation by cell preparations containing no recombinant human CYP. a, Data for clearance are given as μL /min/mg protein. […]
(§5) c, Data for cytochrome P450 turnover and for human flavin- containing monooxygenase 3 (FMO3) are given as percent decline over 60 min.

CYP2C9 = assay: as above; assay type: in vitro ADME; settings: 100 pmol/mL enzyme, 37 °C
Description: as §2, §3, §4, §5

CYP2D6 = assay: as above; assay type: in vitro ADME; settings: 100 pmol/mL enzyme, 37 °C
Description: as §2, §3, §4, §5

CYP3A4 = assay: as above; assay type: in vitro ADME; settings: 100 pmol/mL enzyme, 37 °C
Description: as §2, §3, §4, §5

CYP2C19 = assay: as above; assay type: in vitro ADME; settings: 100 pmol/mL enzyme, 37 °C
Description: as §2, §3, §4, §5

[4] = In vitro metabolism in microsomes; assay type: in vitro ADME; settings: human microsomes

α4β2* nAChRs, sequence (O70174 31-629): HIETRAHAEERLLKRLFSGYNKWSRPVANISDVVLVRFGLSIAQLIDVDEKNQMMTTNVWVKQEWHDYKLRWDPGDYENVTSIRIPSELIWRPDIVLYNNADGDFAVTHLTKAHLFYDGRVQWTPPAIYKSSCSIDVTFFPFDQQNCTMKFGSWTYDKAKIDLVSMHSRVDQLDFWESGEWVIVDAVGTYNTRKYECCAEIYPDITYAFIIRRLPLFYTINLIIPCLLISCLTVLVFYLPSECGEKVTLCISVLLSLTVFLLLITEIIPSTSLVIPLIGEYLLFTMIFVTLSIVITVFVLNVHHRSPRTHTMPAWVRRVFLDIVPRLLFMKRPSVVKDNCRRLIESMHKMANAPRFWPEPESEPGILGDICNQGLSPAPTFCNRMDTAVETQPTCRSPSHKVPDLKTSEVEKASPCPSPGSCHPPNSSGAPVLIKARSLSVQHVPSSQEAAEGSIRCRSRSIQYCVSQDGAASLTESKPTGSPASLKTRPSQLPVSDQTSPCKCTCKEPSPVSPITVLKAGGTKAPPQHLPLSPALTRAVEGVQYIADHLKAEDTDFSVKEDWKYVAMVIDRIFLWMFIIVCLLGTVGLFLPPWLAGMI
α4β2* nAChRs, sequence (Q9ERK7 26-501): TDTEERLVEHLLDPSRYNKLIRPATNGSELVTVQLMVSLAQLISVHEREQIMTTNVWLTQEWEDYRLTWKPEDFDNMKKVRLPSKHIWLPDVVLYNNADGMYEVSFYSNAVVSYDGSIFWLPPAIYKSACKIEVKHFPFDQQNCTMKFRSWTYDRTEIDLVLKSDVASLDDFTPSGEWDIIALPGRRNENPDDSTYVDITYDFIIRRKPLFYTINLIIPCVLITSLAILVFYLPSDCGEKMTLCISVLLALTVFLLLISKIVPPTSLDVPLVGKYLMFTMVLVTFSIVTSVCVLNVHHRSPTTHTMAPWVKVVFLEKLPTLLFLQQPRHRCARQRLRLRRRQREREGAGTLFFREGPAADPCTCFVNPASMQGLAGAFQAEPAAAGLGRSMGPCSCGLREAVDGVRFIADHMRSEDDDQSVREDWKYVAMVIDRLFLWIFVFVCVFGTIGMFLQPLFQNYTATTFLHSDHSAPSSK
α6β2* nAChRs, sequence (Q9R0W9 31-494): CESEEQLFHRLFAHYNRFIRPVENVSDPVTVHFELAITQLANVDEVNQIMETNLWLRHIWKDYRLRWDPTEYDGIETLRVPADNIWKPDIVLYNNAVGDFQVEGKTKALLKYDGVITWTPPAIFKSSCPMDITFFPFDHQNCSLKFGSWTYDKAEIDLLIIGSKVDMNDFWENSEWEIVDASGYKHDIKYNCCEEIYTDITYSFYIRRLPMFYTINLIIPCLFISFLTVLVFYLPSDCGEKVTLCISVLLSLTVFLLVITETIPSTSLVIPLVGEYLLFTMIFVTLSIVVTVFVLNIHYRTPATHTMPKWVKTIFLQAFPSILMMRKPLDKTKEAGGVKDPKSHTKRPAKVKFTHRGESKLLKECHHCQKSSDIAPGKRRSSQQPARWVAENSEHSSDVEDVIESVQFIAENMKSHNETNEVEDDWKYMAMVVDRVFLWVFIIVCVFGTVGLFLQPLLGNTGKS
α6β2* nAChRs, sequence (Q9ERK7 26-501): as the sequence (Q9ERK7 26-501) above
α6β2* nAChRs, sequence (Q8BMN3 31-464 partner): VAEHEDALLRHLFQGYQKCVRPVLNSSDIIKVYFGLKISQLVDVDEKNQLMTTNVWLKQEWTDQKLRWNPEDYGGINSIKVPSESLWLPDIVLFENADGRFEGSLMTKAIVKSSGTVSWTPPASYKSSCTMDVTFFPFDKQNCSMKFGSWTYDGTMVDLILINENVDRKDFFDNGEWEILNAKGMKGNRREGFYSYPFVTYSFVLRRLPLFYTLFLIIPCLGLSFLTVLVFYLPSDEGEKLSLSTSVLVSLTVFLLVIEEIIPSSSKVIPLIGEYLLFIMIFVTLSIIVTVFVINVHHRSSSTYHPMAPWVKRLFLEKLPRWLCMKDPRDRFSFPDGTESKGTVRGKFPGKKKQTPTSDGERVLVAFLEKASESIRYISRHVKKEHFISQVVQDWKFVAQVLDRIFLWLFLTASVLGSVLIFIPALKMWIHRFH

In the case of c1cc2c(cn1)[C@@H]1CC[C@H](CCC2)N1 [PHT, (+)-pyrido[3,4]homotropane], the EC50 (α7 nAChRs) is listed as 660 nM and the EC50 (α3β4 nAChRs) is listed as 430 nM.
With CNC1(C)C2CCC(C2)C1(C)C (centres unmarked) [mecamylamine] the “Effect of pre-injection on nicotine- and TC299423-induced increases in ambulation” value (WT and α6L9′S mice; α6L9′S mice, 1 mg/kg ip pre-injection) was “blocked”.
For CN1CCC[C@H]1c1cccnc1 [nicotine, (L)-nicotine hydrogen tartrate], the “α-CtxMII-resistant [3H]-dopamine release elicited” value (α4β2* nAChRs) was 7.78 ± 0.83 units, the “Antinociceptive effect compared with varenicline” value (WT mice [1]) was “significantly greater than that of varenicline” and the “Marbles buried compared with saline” value (WT mice [2]) was “significantly fewer marbles”. For the same molecule, the “Marbles buried compared with varenicline” value (WT mice [2]; p < 0.001) was “fewer marbles”, the “Ambulatory activity in a novel environment” value (WT and α6L9′S mice; WT mice) was “Neither TC299423 nor nicotine affected WT ambulation” and the “Ambulatory activity in a novel environment” value (WT and α6L9′S mice; α6L9′S mice) was “dramatically increased the ambulatory activity”. For the same molecule, the “α-CtxMII-sensitive [3H]-dopamine release elicited” value (α6β2* nAChRs) was 3.63 ± 0.81 units.
In the case of c1cnc2cc3c(cc2n1)[C@@H]1CNC[C@H]3C1 [varenicline, Varenicline tartrate, reference compound], the half-life [3] is reported as 10 min, the microsomal CLint ([3]; read-out: Clearance) is reported as 233 µL/min/mg and the “Turnover by CYP1A2” value (CYP1A2) is reported as 7 percent decline over 60 min. For the same molecule, the “Turnover by CYP2C9” value (CYP2C9) was 0 percent decline over 60 min, the “Turnover by CYP2D6” value (CYP2D6) was 39 percent decline over 60 min and the “Turnover by CYP3A4” value (CYP3A4) was 50 percent decline over 60 min. For the same molecule, the “Turnover by CYP2C19” value (CYP2C19) was 0 percent decline over 60 min, the “Marbles buried compared with saline” value (WT mice [2]) was “significantly fewer marbles” and the half-life [4] was 43 min. For the same molecule, the microsomal CLint ([4]; read-out: Clearance) was 39 µL/min/mg.
